# Laboratory results from US9511010B2, “Compounds useful in the treatment and/or care of the skin, hair and/or mucous membranes and their cosmetic or pharmaceutical compositions” (Lubrizol Advanced Materials, Inc., priority 2012, dated 2016).
# Assays:
# FOXO response elements = test: Stimulation of the expression of proteins regulated by FOXO: luciferase reporter under FOXO response elements; type: cell-based, human; details: 0.5 mg/mL, 24 hours; carrier (0.05% DMSO) = 100
# Experimental: The activation capacity of the FOXO response elements was evaluated in a human epithelial cell line stably transfected with the luciferase gene under the control of a regulatory sequence which contains different FOXO response elements which are in the promoters of the FOXO target genes. The activation capacity of the FOXO response elements indicates the expression of proteins regulated by FOXO. 30,000 cells per well were seeded in a total volume of 100 μL of RPMI 1640 culture medium. After 24 hours the cells with RPMI 1640 culture medium were washed and were incubated with the compounds of the invention at 0.5 mg/mL for 24 hours in a total volume of 100 μL per well. The carrier in which the compounds of the invention were dissolved was used (0.05% DMSO) as a negative control.
# The measurement of the activity of the promoter was carried out using the Steady-Go Luciferase Assay System kit following the manufacturer's instructions. The luminescence values (RLU/sec) caused by the reaction between luciferase and the substrate were quantified with a luminometer and normalized by the cell number (absorbance at 630 nm), and the activity of the promoter was determined, which was standardized with regard to the negative control values.
# (§1) Each experiment was carried out three times in 3 independent experiments.
# [1] = tested on: HEKa primary keratinocytes; test: Host cell reactivation (HCR) assay, activation of DNA repair in primary keratinocytes; type: cell-based, human; details: 24 hours, basal = 100
# Experimental: The host cell reactivation (HCR) assay was used in HEKa primary keratinocytes to evaluate the capacity of the peptides of the invention to repair the damage to the DNA in a biologically functional way. 40,000 cells per well were seeded and they were co-transfected with a control plasmid which constitutively expresses the Firefly luciferase gene (pGL3), previously damaged by UVC, and with an undamaged plasmid which constitutively expresses the Renilla luciferase gene (vector pRluc-N1(h)).
# Subsequently the cells were incubated with the compounds of the invention at 0.025 mg/mL and 0.5 mg/mL in EpiLife medium for 24 hours, after which the luminescence due to the activity of the Firefly and Renilla luciferases was measured using the Dual-Go Luciferase Assay System kit following the manufacturer's instructions. The carrier in which the compounds of the invention (EpiLife medium) were dissolved was used as a negative control. The activation percentage of the DNA repair for each sample was calculated standardizing the luminescence values of the Firefly luciferase with regard to the Renilla luciferase, subsequently standardizing with regard to the values of the negative control.
# as §1
Substance,Stimulation Average (%) of the activation of the FOXO response factors (FOXO response elements),"Activation Average (%) of DNA repair, HCR assay ([1]; 0.025 mg/mL)","Activation Average (%) of DNA repair, HCR assay ([1]; 0.5 mg/mL)"
Ac-L-Tyr-L-Asn-L-Lys-Gly-L-Gln-L-Val-NH2 (Ac-YNKGQV-NH2) [Ac-SEQ ID NO: 1-NH2],143%,150%,290%
Ac-L-Tyr-L-Asn-L-Lys-L-Leu-L-Gln-L-Val-NH2 (Ac-YNKLQV-NH2) [Ac-SEQ ID NO: 21-NH2],157%,231%,357%
Ac-L-Tyr-L-Asn-L-Lys-L-Lys-L-Gln-L-Val-NH2 (Ac-YNKKQV-NH2) [Ac-SEQ ID NO: 8-NH2],106%,–,–
Ac-L-Tyr-L-Asn-L-Pro-L-His-L-Gln-L-Val-NH2 (Ac-YNPHQV-NH2) [Ac-SEQ ID NO: 18-NH2],148%,–,–
Ac-L-Tyr-L-Asn-L-Ser-L-His-L-Gln-L-Val-NH2 (Ac-YNSHQV-NH2) [Ac-SEQ ID NO: 41-NH2],129%,–,–
Ac-L-Tyr-L-Asn-L-Ser-L-Lys-L-Gln-L-Val-NH2 (Ac-YNSKQV-NH2) [Ac-SEQ ID NO: 27-NH2],128%,–,–
Ac-L-Tyr-L-Glu-L-Pro-L-His-L-Gln-L-Val-NH2 (Ac-YEPHQV-NH2) [Ac-SEQ ID NO: 40-NH2],131%,–,–
Ac-L-Tyr-L-Glu-L-Ser-Gly-L-Gln-L-Val-NH2 (Ac-YESGQV-NH2) [Ac-SEQ ID NO: 16-NH2],119%,–,–
Ac-L-Tyr-L-Glu-L-Ser-L-His-L-Gln-L-Val-NH2 (Ac-YESHQV-NH2) [Ac-SEQ ID NO: 19-NH2],145%,191%,304%
Ac-L-Tyr-L-Glu-L-Ser-L-Lys-L-Gln-L-Val-NH2 (Ac-YESKQV-NH2) [Ac-SEQ ID NO: 24-NH2],133%,295%,271%
Ac-L-Tyr-L-His-L-Lys-L-Leu-L-Gln-L-Val-NH2 (Ac-YHKLQV-NH2) [Ac-SEQ ID NO: 25-NH2],168%,–,–
Ac-L-Tyr-L-His-L-Pro-L-His-L-Gln-L-Val-NH2 (Ac-YHPHQV-NH2) [Ac-SEQ ID NO: 28-NH2],125%,–,–
Ac-L-Tyr-L-His-L-Ser-L-His-L-Gln-L-Val-NH2 (Ac-YHSHQV-NH2) [Ac-SEQ ID NO: 30-NH2],138%,–,–
Ac-L-Tyr-L-His-L-Ser-L-Lys-L-Gln-L-Val-NH2 (Ac-YHSKQV-NH2) [Ac-SEQ ID NO: 26-NH2],124%,–,–
Ac-L-Tyr-L-Tyr-L-Lys-L-Leu-L-Gln-L-Val-NH2 (Ac-YYKLQV-NH2) [Ac-SEQ ID NO: 23-NH2],174%,–,–
Ac-L-Tyr-L-Tyr-L-Pro-L-His-L-Gln-L-Val-NH2 (Ac-YYPHQV-NH2) [Ac-SEQ ID NO: 29-NH2],120%,–,–
Ac-L-Tyr-L-Tyr-L-Pro-L-Lys-L-Gln-L-Val-NH2 (Ac-YYPKQV-NH2) [Ac-SEQ ID NO: 42-NH2],133%,–,–
Ac-L-Tyr-L-Tyr-L-Ser-L-His-L-Gln-L-Val-NH2 (Ac-YYSHQV-NH2) [Ac-SEQ ID NO: 20-NH2],157%,–,–
